Laboratory results taken from ChEMBL document CHEMBL1201862, “PubChem BioAssay data set” (2004).
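48-hour exposure; five concentrations; linearly interpolated endpoints. GI50 = concentration required for 50% inhibition of growth.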 Activity calls are given as the source filed them. Rule as the data show it: active = GI50 up to about 1.1 µM and inactive = higher.

Assays:
Assay in all cases: growth of human tumour cells (NCI), 48 h
[1] = tested on: 786-0
[2] = tested on: A498
[3] = tested on: A549
[4] = tested on: ACHN
[5] = tested on: CCRF-CEM
[6] = tested on: COLO 205
[7] = tested on: DLD-1
[8] = tested on: DMS-114
[9] = tested on: DMS-273
[10] = tested on: EKVX
[11] = tested on: HCC 2998
[12] = tested on: HCT-116
[13] = tested on: HCT-15
[14] = tested on: HL-60
[15] = tested on: HOP-18
[16] = tested on: HOP-62
[17] = tested on: HOP-92
[18] = tested on: HT-29
[19] = tested on: IGROV-1
[20] = tested on: K562
[21] = tested on: KM-20L2
[22] = tested on: KM12
[23] = tested on: LOX IMVI
[24] = tested on: LXFL 529
[25] = tested on: M14
[26] = tested on: M19-MEL
[27] = tested on: MOLT-4
[28] = tested on: Malme-3M
[29] = tested on: NCI-H226
[30] = tested on: NCI-H23
[31] = tested on: NCI-H460
[32] = tested on: NCI-H522
[33] = tested on: OVCAR-3
[34] = tested on: OVCAR-4
[35] = tested on: OVCAR-8
[36] = tested on: RPMI-8226
[37] = tested on: RXF 393
[38] = tested on: SF-268
[39] = tested on: SF-295
[40] = tested on: SF-539
[41] = tested on: SK-MEL-28
[42] = tested on: SK-MEL-2
[43] = tested on: SK-OV-3
[44] = tested on: SN12C
[45] = tested on: SNB-19
[46] = tested on: SNB-75
[47] = tested on: SNB-78
[48] = tested on: SR
[49] = tested on: SW-620
[50] = tested on: TK-10
[51] = tested on: U-251
[52] = tested on: UACC-257
[53] = tested on: UACC-62
[54] = tested on: UO-31
[55] = tested on: XF498

Measured: GI50

CCN1C(=O)N(C)C(O)c2c1nc1ccccn1c2=O (stereo not given)
active: [4] 0.232 µM | [53] 0.103 µM
inactive: [1] 28.5 µM | [2] 25.6 µM | [3] 34.2 µM | [5] 27.8 µM | [6] 21.2 µM | [7] 31.4 µM | [8] 7.4 µM | [9] 19.5 µM | [10] 21.2 µM | [11] 20.3 µM | [12] 28.6 µM | [14] 24.9 µM | [15] 22.3 µM | [16] 28.1 µM | [17] 25.6 µM | [18] 27.6 µM | [19] 32.7 µM | [20] 34 µM | [21] 25.5 µM | [22] 36.5 µM | [23] 17.5 µM | [24] 29 µM | [25] 32.1 µM | [26] 28.4 µM | [27] 32.1 µM | [28] 38.6 µM | [29] 60.7 µM | [30] 24.9 µM | [31] 20.6 µM | [32] 25.3 µM | [33] 26.1 µM | [34] 33 µM | [35] 18.9 µM | [36] 27 µM | [37] 23 µM | [38] 25.4 µM | [39] 28 µM | [40] 24.6 µM | [41] 27.4 µM | [42] 22.2 µM | [43] 26.1 µM | [44] 23.3 µM | [45] 39.4 µM | [46] 20.6 µM | [47] 28.1 µM | [48] 29.1 µM | [49] 35.9 µM | [50] 22.1 µM | [51] 30.8 µM | [52] 40.1 µM | [54] 47.6 µM | [55] 26.2 µM
32.2 µM: [13]

C=C1CC[C@@H]2C(C)(C)C(O)CCC2(C)C1COc1ccc2ccc(=O)oc2c1 (stereo not given in full)
14.1 µM: [13]
inactive: [1] 21.5 µM | [2] 19.9 µM | [3] 17.2 µM | [4] 16.8 µM | [5] 13.4 µM | [6] 14.9 µM | [7] 15.7 µM | [8] 15 µM | [9] 14.3 µM | [10] 19.3 µM | [11] 19.9 µM | [12] 15.5 µM | [14] 15.1 µM | [15] 19.6 µM | [16] 19.1 µM | [17] 17.3 µM | [18] 18.9 µM | [19] 18.9 µM | [20] 16.6 µM | [21] 19.1 µM | [22] 15.6 µM | [23] 16.8 µM | [24] 11.2 µM | [25] 18.6 µM | [26] 18.4 µM | [27] 14.7 µM | [28] 18.1 µM | [29] 18.8 µM | [30] 18.6 µM | [31] 10.5 µM | [32] 16.3 µM | [33] 17.9 µM | [34] 13.5 µM | [35] 17.2 µM | [36] 12.4 µM | [37] 15.3 µM | [38] 18.9 µM | [39] 16.2 µM | [40] 16.8 µM | [41] 18.1 µM | [42] 17.4 µM | [43] 23.4 µM | [44] 16.3 µM | [45] 18.3 µM | [46] 18 µM | [47] 19.4 µM | [48] 23.6 µM | [49] 22.1 µM | [50] 19.8 µM | [51] 17.7 µM | [52] 18.6 µM | [53] 15.8 µM | [54] 16 µM | [55] 16 µM
